The source of these data is US10064848B2, “Pyridic ketone derivatives, method of preparing same, and pharmaceutical application thereof” (Shanghai Hengrui Pharmaceutical Co., Ltd., priority 2013, dated 2018).

In this assay the target is T1, MAP2K2 (MEK2) Recombinant Human Protein (Homo sapiens, UniProt P36507).
T1 construct: purchased Invitrogen PV3615 (MEK2); PV3314 (ERK2)
T1 sequence (P36507 whole entry): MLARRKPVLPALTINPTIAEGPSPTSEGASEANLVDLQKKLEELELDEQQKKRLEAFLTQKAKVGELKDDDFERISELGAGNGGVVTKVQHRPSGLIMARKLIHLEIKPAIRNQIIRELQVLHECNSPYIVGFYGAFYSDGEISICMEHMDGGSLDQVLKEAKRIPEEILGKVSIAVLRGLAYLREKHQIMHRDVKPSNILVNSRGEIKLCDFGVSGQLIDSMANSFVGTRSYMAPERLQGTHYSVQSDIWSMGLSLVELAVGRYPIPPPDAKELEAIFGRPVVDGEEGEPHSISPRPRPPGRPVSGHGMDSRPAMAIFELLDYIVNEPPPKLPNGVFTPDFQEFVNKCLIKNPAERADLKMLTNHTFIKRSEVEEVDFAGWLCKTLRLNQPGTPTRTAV
As to the kind of experiment: MEK2 kinase inhibition assay (Z'-LYTE, MEK2/ERK2 coupled). It counts as biochemical. The conditions noted are these: recombinant human MEK2 with ERK2, Z'-LYTE, 1.5 hours at 25° C; read-out: IC50 for inhibiting MEK kinase (MEK2). How it is done:
MEK2 kinase activity was tested in vitro by the following method.
MEK kinase used in the assay:
MAP2K2 (MEK2) Recombinant Human Protein (Invitrogen, Catalog No. PV3615)
MAPK1 (ERK2) Recombinant Human Protein (Invitrogen, Catalog No. PV3314)
Kit used in the assay: Z′-LYTE™ Kinase Assay Kit-Ser/Thr 03 Peptide (Invitrogen, Catalog No. PV3176).
The following in vitro assay was used to determine the activity of the compounds of the present invention for inhibiting the […] MEK kinase. The test compound was dissolved in dimethyl sulfoxide to the desired concentration. 1× Buffer A (Invitrogen, Catalog No. PV3189) was prepared, ATP was diluted with 1× Buffer A to obtain 400 μM ATP solution, appropriate amounts of Z′-LYTE™ Ser/Thr 03 Peptide (Invitrogen, Catalog No. PV3200), MEK kinase (MEK 2) enzymes, (ERK2) enzymes and 1× Buffer A were mixed, and appropriate amounts of Z′-LYTE™ Ser/Thr 03 phosphoPeptide substrate (Invitrogen, Catalog No. PV3215) and 1× Buffer A were formulated into a mixture to be tested. The 4% DMSO solution of the test compound was prepared from 1× buffer and DMSO solution of the test compound. 2.5 μL DMSO solution of the test compound was added to a reaction well, and then 2.5 μL of 400 μM ATP solution, 5 μL of enzyme and substrate mixture were added to become a 10 μL reaction system. The reaction system was incubated for 1.5 hours at 25° C., and a mixture was prepared according to Reagent A:Buffer B=1:1024. 5 μL of a mixture of Reagent A (Invitrogen, Catalog No. PV3295) and Buffer B (Invitrogen, Item No. P3127) was added to a reaction well, the reaction system was incubated for 60 minutes at 25° C., and then the fluorescence was read by a NovoStar ELISA with excitation wavelength: 400 nm, and emission wavelength: 445 nm and 520 nm.
The above assay was used to determine the biochemical activity of the compounds of the present invention for inhibiting MEK kinase (MEK2).
For orientation: IC50 means the concentration that inhibits the measured activity by half. As for `CCS(=O)(=O)Nc1cccc(Oc2cc(=O)n(C)c(Nc3ccc(I)cc3F)c2C(N)=O)c1C` [Example 3, 4-(3-(ethylsulfonamido)-2-methylphenoxy)-2-((2-fluoro-4-iodophenyl)amino)-1-methyl-6-oxo-1,6-dihydropyridine-3-carboxamide], the IC50 amounted to 19.8 nM. With `Cc1c(F)cccc1Oc1cc(=O)n(C)c(Nc2ccc(I)cc2F)c1C(N)=O` [Example 1, 4-(3-fluoro-2-methylphenoxy)-2-((2-fluoro-4-iodophenyl)amino)-1-methyl-6-oxo-1,6-dihydropyridine-3-carboxamide], the IC50 stood at 108 nM. Under `Cc1ncccc1Oc1cc(=O)n(C)c(Nc2ccc(I)cc2F)c1C(N)=O` [Example 29, 2-((2-fluoro-4-iodophenyl)amino)-1-methyl-4-((2-methylpyridin-3-yl)oxy)-6-oxo-1,6-dihydropyridine-3-carboxamide] stands 217 nM; under `Cc1ccc(Oc2cc(=O)n(C)c(Nc3ccc(I)cc3F)c2C(N)=O)cn1` [Example 31, 2-((2-fluoro-4-iodophenyl)amino)-1-methyl-4-((6-methylpyridin-3-yl)oxy)-6-oxo-1,6-dihydropyridine-3-carboxamide], 351 nM; under `Cc1cc(F)ccc1Oc1cc(=O)n(C)c(Nc2ccc(I)cc2F)c1C(N)=O` [Example 22, 4-(4-fluoro-2-methylphenoxy)-2-((2-fluoro-4-iodophenyl)amino)-1-methyl-6-oxo-1,6-dihydropyridine-3-carboxamide], 121 nM.
